# Data from patent US20210000844A1, “OPHTHALMIC COMPOSITION COMPRISING DIQUAFOSOL AND CATIONIC POLYMER” (Santen Pharmaceutical Co., Ltd., priority 2018, published 2021).
# Tested on: Cultured peripheral nerve cells (dorsal neuro ganglion neuron)
# Assay: Test 4: stimulatory property of diquafosol sodium to peripheral nerves (intracellular calcium fluorescence)
# Assay type: cell-based
# Conditions: stimulation control group (buffer solution instead of formulation solution); diquafosol sodium final concentration 0.3%
# Experimental: The stimulatory property of diquafosol sodium to peripheral nerves in the presence of PVP which is a type of […] was examined. “PVP” denotes polyvinylpyrrolidone. “CMC-Na” denotes carboxymethylcellulose sodium. “HPMC” denotes hydroxypropylmethylcellulose. “CVP” denotes a carboxyvinyl polymer.
# Cultured peripheral nerve cells (dorsal neuro ganglion neuron; purchased from Lonza Japan Ltd.) were incubated in a buffer solution containing an intracellular calcium indicator fluorescent dye (FLIPR Calcium 6 Assay Kit; Molecular Devices, LLC). 40% of the total amount of the buffer solution was replaced by each of the above-described formulation solutions. A non-stimulation group and a stimulation control group were similarly treated with the buffer solution instead of the formulation solution. The cells were left standing at room temperature, followed by starting fluorescence measurement over time with the calcium indicator dye using a fluorescence plate reader. 60 seconds after the start of the measurement, diquafosol sodium (final concentration: 0.3%) was added, and the measurement of fluorescence intensity was continued.
# The maximum fluorescence intensity (RFUmax) after addition of diquafosol sodium was calculated as a relative value against the fluorescence intensity (RFU) immediately before the addition, with the fluorescence intensity (RFU) defined as 100%.
smiles,measurement,value
"O=c1ccn([C@@H]2O[C@H](COP(=O)([O-])OP(=O)([O-])OP(=O)([O-])OP(=O)([O-])OC[C@H]3O[C@@H](n4ccc(=O)[nH]c4=O)[C@H](O)[C@@H]3O)[C@@H](O)[C@H]2O)c(=O)[nH]1.[Na+].[Na+].[Na+].[Na+] [diquafosol sodium, diquafosol tetrasodium salt]",maximum fluorescence intensity (RFUmax) after addition of diquafosol sodium,≥ 103.5%
